Measurements as given in BindingDB's records for doi:10.1021/jm970140s (Merck Research Laboratories, 1997).

Target: Vitamin K-dependent protein C (Homo sapiens) (UniProt P04070)
Assay: Inhibitory activity against human serine protease (act protein C )(7.5*10e6*)

Chain of Vitamin K-dependent protein C (Homo sapiens) (P04070 whole entry, looked up): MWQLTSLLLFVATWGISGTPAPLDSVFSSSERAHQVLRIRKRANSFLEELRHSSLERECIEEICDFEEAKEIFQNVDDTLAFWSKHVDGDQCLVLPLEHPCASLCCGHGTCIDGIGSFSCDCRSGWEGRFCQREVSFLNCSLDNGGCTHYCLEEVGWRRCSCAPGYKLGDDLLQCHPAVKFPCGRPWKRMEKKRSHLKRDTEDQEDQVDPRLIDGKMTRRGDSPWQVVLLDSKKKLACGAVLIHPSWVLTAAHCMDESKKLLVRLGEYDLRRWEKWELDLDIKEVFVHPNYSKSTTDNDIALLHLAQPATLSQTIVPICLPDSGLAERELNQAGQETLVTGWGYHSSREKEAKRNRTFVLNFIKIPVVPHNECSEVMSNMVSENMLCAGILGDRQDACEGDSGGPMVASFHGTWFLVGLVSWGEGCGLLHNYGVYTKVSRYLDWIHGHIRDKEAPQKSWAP

## NC1CCC(CNC(=O)[C@@H]2CCCN2C(=O)[C@H](N)C(C2CCCCC2)C2CCCCC2)CC1 (stereo partly specified) [1-(2-Amino-3,3-dicyclohexyl-propionyl)-pyrrolidine-2-carboxylic acid (4-amino-cyclohexylmethyl)-amide]
  Ki: 417 µM
